What was measured:
[1] = test system: S. pneumoniae ATCC 49619; assay: MIC, NCCLS broth microdilution; type: cell-based, Streptococcus pneumoniae; settings: E = S. pneumoniae ATCC 49619
Excerpt: (§1) In vitro biological activity data were collected for a variety of microorganisms, including Staphylococcus aureus (ATCC 27660, a methicillin resistant strain (MRSA); ATCC 13709, a methicillin sensitive strain (MSSA)), Enterococcus faecalis (ATCC 29212), Bacillus cereus (ATCC 11778), Streptococcus pneumoniae (ATCC 49619), Candida albicans (ATCC 38247), Escherichia coli (ATCC 25922), and Moraxella (now Branhamella) catarrhalis (ATCC 25238).
(§2) The minimal inhibition concentration (MIC) of these compounds was determined using the National Committee for Clinical Laboratory Standards (NCCLS) broth microdilution assay in microtiter plates, as set forth in: (1) the guidelines of the National Committee for Clinical Laboratory Standards (NCCLS) Document M7-A4 (NCCLS, 1997); (2) the guidelines of the National Committee for Clinical Laboratory Standards (NCCLS) Document M11-A4 (NCCLS, 1997); and (3) the guidelines and reference method of the National Committee for Clinical Laboratory Standards (NCCLS) Document M27-T (NCCLS, 1995). For antifungal assays, the method recommended in Murray, P R., 1995 Manual of Clinical Microbiology (ASM Press, Washington, DC.), was employed.

[2] = test system: C. albicans ATCC 38247; assay: MIC, antifungal assay; type: cell-based, Candida albicans; settings: F = C. albicans ATCC 38247
Excerpt: as §1, §2

[3] = test system: E. faecalis ATCC 29212; assay: MIC, NCCLS broth microdilution; type: cell-based, Enterococcus faecalis; settings: C = E. faecalis ATCC 29212
Excerpt: as §1, §2

[4] = test system: B. cereus ATCC 11778; assay: MIC, NCCLS broth microdilution; type: cell-based, Bacillus cereus; settings: D = B. cereus ATCC 11778
Excerpt: as §1, §2

[5] = test system: S. aureus ATCC 27660; assay: MIC, NCCLS broth microdilution; type: cell-based, Staphylococcus aureus; settings: B = S. aureus ATCC 27660 (MRSA)
Excerpt: as §1, §2

[6] = test system: S. aureus ATCC 13709; assay: MIC, NCCLS broth microdilution; type: cell-based, Staphylococcus aureus; settings: A = S. aureus ATCC 13709 (MSSA)
Excerpt: as §1, §2

[7] = test system: E. coli ATCC 25922; assay: MIC, NCCLS broth microdilution; type: cell-based, Escherichia coli; settings: G = E. coli ATCC 25922
Excerpt: as §1, §2

[8] = test system: M. catarrhalis (ATCC 25238); assay: MIC, NCCLS broth microdilution; type: cell-based, Moraxella (now Branhamella) catarrhalis; settings: H = M. catarrhalis (ATCC 25238)
Excerpt: as §1, §2

Compound | Minimum Inhibitory Concentration (MIC) [1] | Minimum Inhibitory Concentration (MIC) [2] | Minimum Inhibitory Concentration (MIC) [3] | Minimum Inhibitory Concentration (MIC) [4] | Minimum Inhibitory Concentration (MIC) [5] | Minimum Inhibitory Concentration (MIC) [6] | Minimum Inhibitory Concentration (MIC) [7] | Minimum Inhibitory Concentration (MIC) [8]
Cn1cc(NC(=O)c2cc3cc4c(cc3cn2)OCO4)cc1C(=O)Nc1ccc(C(=O)Nc2cn(C)c(C(=O)NCCN3CCC(O)CC3)n2)cc1 [Compound A-6] | +++ (MIC ≦ 4 μg/mL) | + (12 ≦ MIC ≦ 32 μg/mL) | +++ (MIC ≦ 4 μg/mL) | +++ (MIC ≦ 4 μg/mL) | +++ (MIC ≦ 4 μg/mL) | +++ (MIC ≦ 4 μg/mL) | + (12 ≦ MIC ≦ 32 μg/mL) | ++ (4 < MIC < 12 μg/mL)
Cn1cc(NC(=O)c2cc3ccccc3cn2)cc1C(=O)Nc1ccc(C(=O)Nc2cn(C)c(C(=O)NCCN3CCC(O)CC3)n2)cc1 [Compound A-19] | +++ (MIC ≦ 4 μg/mL) | >32 µg/mL | +++ (MIC ≦ 4 μg/mL) | +++ (MIC ≦ 4 μg/mL) | +++ (MIC ≦ 4 μg/mL) | +++ (MIC ≦ 4 μg/mL) | + (12 ≦ MIC ≦ 32 μg/mL) | +++ (MIC ≦ 4 μg/mL)
Cn1cc(NC(=O)c2cc3ccccc3cn2)cc1C(=O)Nc1ccc(C(=O)Nc2cn(C)c(C(=O)NCCN3CCOCC3)n2)cc1 [Compound A-10] | +++ (MIC ≦ 4 μg/mL) | >32 µg/mL | +++ (MIC ≦ 4 μg/mL) | +++ (MIC ≦ 4 μg/mL) | +++ (MIC ≦ 4 μg/mL) | +++ (MIC ≦ 4 μg/mL) | >32 µg/mL | +++ (MIC ≦ 4 μg/mL)
Cn1cc(NC(=O)c2cc3ccccc3cn2)cc1C(=O)Nc1ccc(C(=O)Nc2cn(C)c(C(=O)NCCN3CCSCC3)n2)cc1 [Compound A-18] | +++ (MIC ≦ 4 μg/mL) | >32 µg/mL | +++ (MIC ≦ 4 μg/mL) | +++ (MIC ≦ 4 μg/mL) | +++ (MIC ≦ 4 μg/mL) | +++ (MIC ≦ 4 μg/mL) | >32 µg/mL | +++ (MIC ≦ 4 μg/mL)
Cn1cc(NC(=O)c2cc3ccccc3cn2)cc1C(=O)Nc1ccc(C(=O)Nc2cn(C)c(C(=O)NCCN3CCCCC3)n2)cc1 [Compound A-17] | +++ (MIC ≦ 4 μg/mL) | + (12 ≦ MIC ≦ 32 μg/mL) | +++ (MIC ≦ 4 μg/mL) | +++ (MIC ≦ 4 μg/mL) | +++ (MIC ≦ 4 μg/mL) | +++ (MIC ≦ 4 μg/mL) | +++ (MIC ≦ 4 μg/mL) | +++ (MIC ≦ 4 μg/mL)
Cn1cc(NC(=O)c2ccc(Cl)cc2F)cc1C(=O)Nc1ccc(C(=O)Nc2cn(C)c(C(=O)NCCN3CCC(O)CC3)n2)cc1 [Compound A-4] | +++ (MIC ≦ 4 μg/mL) | + (12 ≦ MIC ≦ 32 μg/mL) | +++ (MIC ≦ 4 μg/mL) | +++ (MIC ≦ 4 μg/mL) | +++ (MIC ≦ 4 μg/mL) | +++ (MIC ≦ 4 μg/mL) | ++ (4 < MIC < 12 μg/mL) | +++ (MIC ≦ 4 μg/mL)
Cn1cc(NC(=O)c2cc3c(N)cccc3cn2)cc1C(=O)Nc1ccc(C(=O)Nc2cn(C)c(C(=O)NCCN3CCC(O)CC3)n2)cc1 [Compound A-8] | +++ (MIC ≦ 4 μg/mL) | ++ (4 < MIC < 12 μg/mL) | +++ (MIC ≦ 4 μg/mL) | +++ (MIC ≦ 4 μg/mL) | +++ (MIC ≦ 4 μg/mL) | +++ (MIC ≦ 4 μg/mL) | ++ (4 < MIC < 12 μg/mL) | ++ (4 < MIC < 12 μg/mL)

Results, then the compound that gave them:

Minimum Inhibitory Concentration (MIC) [1] | Minimum Inhibitory Concentration (MIC) [2] | Minimum Inhibitory Concentration (MIC) [3] | Minimum Inhibitory Concentration (MIC) [4] | Minimum Inhibitory Concentration (MIC) [5] | Minimum Inhibitory Concentration (MIC) [6] | Minimum Inhibitory Concentration (MIC) [7] | Minimum Inhibitory Concentration (MIC) [8] | Compound
+++ (MIC ≦ 4 μg/mL) | >32 µg/mL | +++ (MIC ≦ 4 μg/mL) | +++ (MIC ≦ 4 μg/mL) | +++ (MIC ≦ 4 μg/mL) | +++ (MIC ≦ 4 μg/mL) | >32 µg/mL | ++ (4 < MIC < 12 μg/mL) | CC(C)C(CO)NCCNC(=O)c1nc(NC(=O)c2ccc(NC(=O)c3cc(NC(=O)c4cc5ccccc5cn4)cn3C)cc2)cn1C (stereo not shown) [Compound A-46]
+++ (MIC ≦ 4 μg/mL) | >32 µg/mL | + (12 ≦ MIC ≦ 32 μg/mL) | >32 µg/mL | +++ (MIC ≦ 4 μg/mL) | +++ (MIC ≦ 4 μg/mL) | >32 µg/mL | >32 µg/mL | Cn1cc(NC(=O)c2cc3ccccc3cn2)cc1C(=O)Nc1ccc(C(=O)Nc2cn(C)c(C(=O)NCCNC(CO)(CO)CO)n2)cc1 [Compound A-49]
+++ (MIC ≦ 4 μg/mL) | >32 µg/mL | +++ (MIC ≦ 4 μg/mL) | +++ (MIC ≦ 4 μg/mL) | +++ (MIC ≦ 4 μg/mL) | +++ (MIC ≦ 4 μg/mL) | >32 µg/mL | + (12 ≦ MIC ≦ 32 μg/mL) | Cn1cc(NC(=O)c2cc3ccccc3cn2)cc1C(=O)Nc1ccc(C(=O)Nc2cn(C)c(C(=O)NCCN3CCN(C(=O)OC(C)(C)C)CC3)n2)cc1 [Compound A-55]
+++ (MIC ≦ 4 μg/mL) | >32 µg/mL | +++ (MIC ≦ 4 μg/mL) | +++ (MIC ≦ 4 μg/mL) | +++ (MIC ≦ 4 μg/mL) | +++ (MIC ≦ 4 μg/mL) | >32 µg/mL | >32 µg/mL | Cn1cc(NC(=O)c2cc3ccccc3cn2)cc1C(=O)Nc1ccc(C(=O)Nc2cn(C)c(C(=O)NCCNCCN3CCOCC3)n2)cc1 [Compound A-26]
+++ (MIC ≦ 4 μg/mL) | >32 µg/mL | +++ (MIC ≦ 4 μg/mL) | +++ (MIC ≦ 4 μg/mL) | +++ (MIC ≦ 4 μg/mL) | +++ (MIC ≦ 4 μg/mL) | >32 µg/mL | +++ (MIC ≦ 4 μg/mL) | Cn1cc(NC(=O)c2cc3ccccc3cn2)cc1C(=O)Nc1ccc(C(=O)Nc2cn(C)c(C(=O)NCCN3CCCC(O)C3)n2)cc1 (racemic) [Compound A-69]
+++ (MIC ≦ 4 μg/mL) | + (12 ≦ MIC ≦ 32 μg/mL) | ++ (4 < MIC < 12 μg/mL) | ++ (4 < MIC < 12 μg/mL) | +++ (MIC ≦ 4 μg/mL) | +++ (MIC ≦ 4 μg/mL) | >32 µg/mL | >32 µg/mL | CCOCCCNCCNC(=O)c1nc(NC(=O)c2ccc(NC(=O)c3cc(NC(=O)c4cc5ccccc5cn4)cn3C)cc2)cn1C [Compound A-31]
+ (12 ≦ MIC ≦ 32 μg/mL) | >32 µg/mL | +++ (MIC ≦ 4 μg/mL) | +++ (MIC ≦ 4 μg/mL) | +++ (MIC ≦ 4 μg/mL) | +++ (MIC ≦ 4 μg/mL) | >32 µg/mL | >32 µg/mL | Cn1cc(NC(=O)c2cc3ccccc3cn2)cc1C(=O)Nc1ccc(C(=O)Nc2cn(C)c(C(=O)NCCN3CCC(OC(=O)CNS(=O)(=O)O)CC3)n2)cc1 [Compound A-68]

Reference: patent publication US7642245B2, “Antibacterial compounds having a (pyrrole carboxamide)-(benzamide)-(imidazole carboxamide) motif” (Oscient Pharmaceuticals Corporation, priority 2002, dated 2010)
